Data from PubChem BioAssay AID256 (DTP/NCI, 2004).
Toxic doses and inconclusive results are not listed. Rule for the calls: active = survival T/C of 150% or more; inactive = T/C below 125% in these data.

Test system: CD2F1 mice, L1210 leukemia ip, survival T/C
Test: NCI In Vivo Anticancer Drug Screen. Data for tumor model L1210 Leukemia (intraperitoneal) in CD2F1 (CDF1) mice
Conditions: higher = longer survival
How it was run: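 Compound-dosed mice with transplantable tumor versus matched vehicle controls; endpoint ratio T/C reported.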

[1] = endpoint: mean survival time, dose: 100.0 mg/kg/injection, schedule: Q04DX003 (ip), vehicle: saline
[2] = endpoint: mean survival time, dose: 200.0 mg/kg/injection, schedule: Q04DX003 (ip), vehicle: saline
[3] = endpoint: mean survival time, dose: 400.0 mg/kg/injection, schedule: Q04DX003 (ip), vehicle: saline
[4] = endpoint: mean survival time, dose: 100.0 mg/kg/injection, schedule: Q04DX003 (ip), vehicle: saline with Tween-80
[5] = endpoint: mean survival time, dose: 200.0 mg/kg/injection, schedule: Q04DX003 (ip), vehicle: saline with Tween-80
[6] = endpoint: mean survival time, dose: 400.0 mg/kg/injection, schedule: Q04DX003 (ip), vehicle: saline with Tween-80

Measured: T/C

O=S(=O)(N/N=C/c1ccncc1)c1ccccc1
inactive: endpoint: mean survival time, dose: 12.5 mg/kg/injection, schedule: Q04DX003 (ip), vehicle: water 98 % of control | endpoint: mean survival time, dose: 25.0 mg/kg/injection, schedule: Q04DX003 (ip), vehicle: water 98 % of control | endpoint: mean survival time, dose: 50.0 mg/kg/injection, schedule: Q04DX003 (ip), vehicle: water 104 % of control | endpoint: mean survival time, dose: 100.0 mg/kg/injection, schedule: Q04DX003 (ip), vehicle: water 106 % of control | endpoint: mean survival time, dose: 200.0 mg/kg/injection, schedule: Q04DX003 (ip), vehicle: water 112 % of control | endpoint: mean survival time, dose: 400.0 mg/kg/injection, schedule: Q04DX003 (ip), vehicle: water 108 % of control

COC1OC2C(CO)OC(n3ncc4c3ncn3cnnc43)C2O1 (stereo unspecified)
inactive: endpoint: mean survival time, dose: 12.5 mg/kg/injection, schedule: Q01DX005 (ip), vehicle: distilled water + Tween-80 96 % of control | endpoint: mean survival time, dose: 25.0 mg/kg/injection, schedule: Q01DX005 (ip), vehicle: distilled water + Tween-80 96 % of control | endpoint: mean survival time, dose: 50.0 mg/kg/injection, schedule: Q01DX005 (ip), vehicle: distilled water + Tween-80 92 % of control | endpoint: mean survival time, dose: 100.0 mg/kg/injection, schedule: Q01DX005 (ip), vehicle: distilled water + Tween-80 96 % of control | endpoint: mean survival time, dose: 200.0 mg/kg/injection, schedule: Q01DX005 (ip), vehicle: distilled water + Tween-80 96 % of control

CC(=O)CCC(C)=O
inactive: endpoint: mean survival time, dose: 100.0 mg/kg/injection, schedule: Q01DX009 (ip), vehicle: saline with Tween-80 100 % of control | [1] 97 % of control | endpoint: mean survival time, dose: 200.0 mg/kg/injection, schedule: Q01DX009 (ip), vehicle: saline with Tween-80 109 % of control | [2] 100 % of control | endpoint: mean survival time, dose: 400.0 mg/kg/injection, schedule: Q01DX009 (ip), vehicle: saline with Tween-80 100 % of control | [3] 94 % of control

CC1(C)OCC(C(O)C(O)C(O)CO)O1 (stereo unspecified)
inactive: endpoint: mean survival time, dose: 50.0 mg/kg/injection, schedule: Q01DX009 (ip), vehicle: saline 102 % of control | endpoint: mean survival time, dose: 100.0 mg/kg/injection, schedule: Q01DX009 (ip), vehicle: saline 98 % of control | endpoint: mean survival time, dose: 200.0 mg/kg/injection, schedule: Q01DX009 (ip), vehicle: saline 102 % of control

Nc1nc(N)c2cc(S(=O)(=O)c3ccccc3)ccc2n1
inactive: endpoint: median survival time, dose: 25.0 mg/kg/injection, schedule: Q01DX009 (ip), vehicle: saline with Tween-80 98 % of control | endpoint: median survival time, dose: 50.0 mg/kg/injection, schedule: Q01DX009 (ip), vehicle: saline with Tween-80 100 % of control | endpoint: median survival time, dose: 100.0 mg/kg/injection, schedule: Q01DX009 (ip), vehicle: saline with Tween-80 102 % of control | endpoint: median survival time, dose: 200.0 mg/kg/injection, schedule: Q01DX009 (ip), vehicle: saline with Tween-80 121 % of control

O=C(O)CNC(=O)C(CN1CC(=O)OC1c1ccc([N+](=O)[O-])cc1)N1C(=O)c2ccccc2C1=O (stereo unspecified)
inactive: endpoint: mean survival time, dose: 100.0 mg/kg/injection, schedule: Q04DX003 (ip), vehicle: saline sonified 92 % of control | endpoint: mean survival time, dose: 200.0 mg/kg/injection, schedule: Q04DX003 (ip), vehicle: saline sonified 88 % of control | endpoint: mean survival time, dose: 400.0 mg/kg/injection, schedule: Q04DX003 (ip), vehicle: saline sonified 92 % of control

CC1(C)C2CCC1(C)C(OCCCN=C(N)CSS(=O)(=O)O)C2 (stereo unspecified)
inactive: endpoint: mean survival time, dose: 9.4 mg/kg/injection, schedule: Q04DX002 (ip), vehicle: saline with Tween-80 95 % of control | endpoint: mean survival time, dose: 18.7 mg/kg/injection, schedule: Q04DX002 (ip), vehicle: saline with Tween-80 109 % of control | endpoint: mean survival time, dose: 37.5 mg/kg/injection, schedule: Q04DX002 (ip), vehicle: saline with Tween-80 112 % of control

OC(CF)CF
inactive: endpoint: mean survival time, dose: 12.5 mg/kg/injection, schedule: Q01DX009 (ip), vehicle: saline 106 % of control | endpoint: mean survival time, dose: 25.0 mg/kg/injection, schedule: Q01DX009 (ip), vehicle: saline 118 % of control

C=C(C#N)C(=O)OCC(CC)CC.C=C(C#N)C(=O)OCC(CC)CC.CS(C)=O.CS(C)=O.Nc1c(N=Nc2ccc(-c3ccc(N=Nc4cc(S(=O)(=O)[O-])c5ccccc5c4N)cc3)cc2)cc(S(=O)(=O)[O-])c2ccccc12.[Pt+2]
inactive: endpoint: median survival time, dose: 3.12 mg/kg/injection, schedule: Q04DX003 (ip), vehicle: saline with Tween-80 95 % of control | endpoint: median survival time, dose: 6.25 mg/kg/injection, schedule: Q04DX003 (ip), vehicle: saline with Tween-80 106 % of control | endpoint: median survival time, dose: 12.5 mg/kg/injection, schedule: Q04DX003 (ip), vehicle: saline with Tween-80 108 % of control | endpoint: median survival time, dose: 25.0 mg/kg/injection, schedule: Q04DX003 (ip), vehicle: saline with Tween-80 100 % of control | endpoint: median survival time, dose: 50.0 mg/kg/injection, schedule: Q04DX003 (ip), vehicle: saline with Tween-80 97 % of control | endpoint: median survival time, dose: 100.0 mg/kg/injection, schedule: Q04DX003 (ip), vehicle: saline with Tween-80 98 % of control | endpoint: median survival time, dose: 200.0 mg/kg/injection, schedule: Q04DX003 (ip), vehicle: saline with Tween-80 90 % of control

N/C(Cc1ccc(N)cc1)=N\O
inactive: [4] 110 % of control

COC12CC3C4CCC5CC(O)CCC5(C)C4CCC3(C)C1C(C)C1(CCC(C)CO1)O2 (stereo unspecified)
inactive: [4] 100 % of control | [5] 96 % of control | [6] 92 % of control

CCC(N)c1ccc2c3c(cccc13)CC2 (stereo unspecified)
inactive: endpoint: mean survival time, dose: 100.0 mg/kg/injection, schedule: Q01DX001 (ip), vehicle: saline with Tween-80 89 % of control | endpoint: mean survival time, dose: 200.0 mg/kg/injection, schedule: Q01DX001 (ip), vehicle: saline with Tween-80 86 % of control | endpoint: mean survival time, dose: 400.0 mg/kg/injection, schedule: Q01DX001 (ip), vehicle: saline with Tween-80 89 % of control

CCCCCC(=O)N1CCCCCC1
inactive: [1] 96 % of control | [2] 98 % of control | [3] 98 % of control

OCC1OC(n2ncc3c2nnn2ncnc32)C(O)C1O (stereo unspecified)
inactive: endpoint: mean survival time, dose: 25.0 mg/kg/injection, schedule: Q01DX005 (ip), vehicle: water 92 % of control | endpoint: mean survival time, dose: 50.0 mg/kg/injection, schedule: Q01DX005 (ip), vehicle: water 99 % of control | endpoint: mean survival time, dose: 100.0 mg/kg/injection, schedule: Q01DX005 (ip), vehicle: water 94 % of control | endpoint: mean survival time, dose: 200.0 mg/kg/injection, schedule: Q01DX005 (ip), vehicle: water 87 % of control | endpoint: mean survival time, dose: 400.0 mg/kg/injection, schedule: Q01DX005 (ip), vehicle: water 113 % of control

CCCC[CH2][Pb]([CH2]CCCC)([CH2]CCCC)[O]C(C)=O
inactive: endpoint: mean survival time, dose: 0.25 mg/kg/injection, schedule: Q01DX009 (ip), vehicle: saline with Tween-80 96 % of control | endpoint: mean survival time, dose: 0.5 mg/kg/injection, schedule: Q01DX009 (ip), vehicle: saline with Tween-80 93 % of control | endpoint: mean survival time, dose: 1.0 mg/kg/injection, schedule: Q01DX009 (ip), vehicle: saline with Tween-80 90 % of control | endpoint: mean survival time, dose: 1.0 mg/kg/injection, schedule: Q04DX003 (ip), vehicle: saline with Tween-80 95 % of control

CC1(C)N=C(N)N=C(N)N1c1ccc(OCc2ccc(C(=O)Nc3cccc(S(=O)(=O)F)c3)cc2)c(Cl)c1
inactive: [2] 104 % of control

CC/C=C/C(C)OC(=N)C(Cl)(Cl)Cl (stereo unspecified)
inactive: endpoint: mean survival time, dose: 100.0 mg/kg/injection, schedule: Q04DX002 (ip), vehicle: saline with Tween-80 103 % of control | endpoint: mean survival time, dose: 200.0 mg/kg/injection, schedule: Q04DX002 (ip), vehicle: saline with Tween-80 100 % of control | endpoint: mean survival time, dose: 400.0 mg/kg/injection, schedule: Q04DX002 (ip), vehicle: saline with Tween-80 97 % of control

O=P(O)(c1ccccc1Br)c1ccccc1Br
inactive: endpoint: mean survival time, dose: 50.0 mg/kg/injection, schedule: Q04DX003 (ip), vehicle: saline 101 % of control | [1] 97 % of control | [2] 94 % of control

CC1(C)OCC2OC3(CO)NP(=O)(N(CCCl)CCCl)OC3C2O1 (stereo unspecified)
inactive: endpoint: mean survival time, dose: 62.5 mg/kg/injection, schedule: Q01DX001 (ip), vehicle: distilled water + Tween-80 102 % of control | endpoint: mean survival time, dose: 125.0 mg/kg/injection, schedule: Q01DX001 (ip), vehicle: distilled water + Tween-80 101 % of control | endpoint: mean survival time, dose: 250.0 mg/kg/injection, schedule: Q01DX001 (ip), vehicle: distilled water + Tween-80 93 % of control

CC(CP(=O)(c1ccccc1)c1ccccc1)C(=O)O (stereo unspecified)
inactive: [4] 92 % of control | [5] 95 % of control | [6] 101 % of control
